Experimental data reported in patent publication US7615527B2, “Peptides which modulate blood coagulation and methods of use thereof” (Oregon Health & Science University, priority 2001, dated 2009).
Ends that are not written are not given here.

Columns and labels:
[1] = test system: normal human reference plasma; test: Activated partial thromboplastin time (aPTT) assay in human plasma; format: biochemical; conditions: 1 mM peptide; reference blood plasma; without peptide 29.0±0.1 seconds
Procedure: Activated Partial Thromboplastin Time (aPTT) Assay. This anti-coagulation assay was chosen for testing the γ′ peptides due to its sensitivity to heparin-like compounds, its ease of use, and the ability to automate the procedure. An MLA 1600 instrument (Organon Teknika) was used to quantitate the effect of the γ′ peptides on the aPTT, using the manufacturer's protocol. Briefly, 0-1 mM γ′ peptides or 0-10 units/ml unfractionated heparin was added to 50 μl of normal reference plasma (Ortho) and manually loaded into the MLA 1600. The MLA 1600 added SynthASil aPTT reagent (Ortho) to initiate clotting, and clot formation was monitored spectrophotometrically for 106 seconds. […] Prothrombin Time/International Normalized Ratio Assay. This clotting assay is less sensitive to heparin than the aPTT, and may be used to determine if a γ′ peptide is capable of prolonging the prothrombin time (PT) to the same extent as the 3 aPTT. One-stage PT assays may be performed using an MLA 1600 instrument according to the manufacturer's protocol. Briefly, 0-1 mM γ′ peptide or scrambled peptide or 0-10 units/ml unfractionated heparin may be added to 50 μl of normal reference plasma (Ortho) and manually loaded into the MLA 1600. The MLA 1600 may be used to add recombinant thromboplastin (Recombiplastin, Ortho) to initiate clotting, and clot formation monitored spectrophotometrically for 106 seconds. If a clot is not generated within 106 seconds, the MLA will automatically extend the observation time to 212 seconds.
An aPTT assay was performed using human plasma to determine the effect of γ′ peptide on the clotting time in this system. […] The MLA 1600 added SynthASil aPTT reagent (Ortho) to initiate clotting and clot formation was monitored spectrophotometrically for 106 seconds. […]
An aPTT assay was performed using human plasma to determine the effect of γ′ deletion peptides on the clotting time in this system. […] The MLA 1600 added SynthASil aPTT reagent (Ortho) to initiate clotting and clot formation was monitored spectrophotometrically for 106 seconds. […]

[2] = test system: platelet aggregation in platelet-rich plasma; test: Platelet aggregometry assay (PAP-4) in platelet-rich plasma; format: cell-based; conditions: for Platelet aggregation Slope, ADP / Platelet aggregation Extent, ADP: 2 μM ADP; for Platelet aggregation Slope, ADP: 0 mM: 47; for Platelet aggregation Extent, ADP / Platelet aggregation Extent, Epinephrine: 0 mM: 83%; for Platelet aggregation Slope, Epinephrine / Platelet aggregation Extent, Epinephrine: 10 μg/ml epinephrine; for Platelet aggregation Slope, Epinephrine: 0 mM: 24; for Platelet aggregation Slope, Arachidonic Acid / Platelet aggregation Extent, Arachidonic Acid: 0.5 mg/ml arachidonic acid; for Platelet aggregation Slope, Arachidonic Acid: 0 mM: 32; for Platelet aggregation Extent, Arachidonic Acid: 0 mM: 82%; for Platelet aggregation Extent, Thrombin / Platelet aggregation Slope, Thrombin: 0.2 units/ml thrombin; for Platelet aggregation Extent, Thrombin: 0 mM: 97%; for Platelet aggregation Slope, Thrombin: 0 mM: 113
Procedure: Reptilase Time Assays. The reptilase time may be used as a control assay to examine the effects of a γ′ peptide. This assay is insensitive to thrombin inhibitors, since reptilase is used to clot fibrinogen rather than thrombin. An LA STA instrument (Diagnostica Stago) may be used to quantitate the effect of the γ′ peptide on the RVV, using the manufacturer's protocol. Briefly, 0-1 mM γ′ peptide or scrambled peptide or 0-10 units/ml unfractionated heparin may be added to 1 ml of normal reference plasma (DVVtroll) and loaded into the LA STA. The LA STA may be used to add Reptilase ST reagent (American Diagnostica) to initiate clotting, and clot formation monitored spectrophotometrically for 65 seconds. […] Platelet Aggregometzy Assays. This assay may be used to test the effects of a γ′ peptide on platelet aggregation in platelet-rich plasma. The activity of a γ′ peptide may be assayed in the presence or absence of epinephrine, ADP, collagen, ristocetin, arachidonic acid, and thrombin. A PAP-4 platelet aggregometer (Bio/Data) was used to quantitate the effect of the γ′ peptide on platelet aggregation, using the manufacturer's protocol. […] Blood was centrifuged for 10 minutes at 1,000×g, to isolate the supernatant of platelet-rich plasma. All experiments were performed within 2 hours of the blood draw. 0-1 mM γ′ peptide or scrambled peptide or 0-10 units/ml unfractionated heparin was added to 450 μl of platelet-rich plasma and loaded into siliconized cuvettes. 50 μl of agonist was added and the absorbance monitored for 6 minutes. The agonists used were 10 μg/ml epinephrine (American Reagent Laboratories), 2 μM ADP (Sigma), 0.5 mg/ml arachidonic acid (Bio/Data), or 0.2 units/ml thrombin. The presence or absence of a bi-phasic response may be determined, which is of particular significance in the presence of epinephrine, ADP, and ristocetin. The length of the lag phase may be determined, which is especially relevant in the presence of collagen. PFA-100 Assays. The effect of the γ′ peptide on platelet function may also be assessed using a Platelet Function Analyzer (PFA-100™, Dade Behring). The PFA-100 instrument measures the closure time of a capillary tube containing whole blood. This assay may be used to advantage to examine the effect of γ′ peptide on platelet function in whole blood in the presence of either of the platelet agonists epinephrine or ADP. Briefly, 0-1 mM γ′ peptide or scrambled peptide or 0-10 units/ml unfractionated heparin may be added to 800 μl of normal reference whole blood from an established control group and loaded into the PFA-100 to measure the closure time. Platelet function may be tested using both a collagen/epinephrine cartridge and a collagen/ADP cartridge
Platelet aggregation assays were performed as described hereinabove. A PAP-4 platelet aggregometer (Bio/Data) was used to quantitate the effect of the γ′ peptide on platelet aggregation, using the manufacturer's protocol.
Blood was centrifuged for 10 minutes at 1,000×g, and the supernatant of platelet-rich plasma was separated. 0-1 mM γ′ peptide was added to 450 μl of platelet-rich plasma and loaded into siliconized cuvettes. 50 μl of agonist was added, and the absorbance was monitored for 6 minutes. The agonists used were 2 μM ADP (Sigma), 0.5 mg/ml arachidonic acid (Bio/Data), 10 μg/ml epinephrine (American Reagent Laboratories), or 0.2 units/ml thrombin.

PEHPAETEY(*)DSLY(*)PEDDL (PEHPAETEYDSLYPEDDL; not fully specified (residues 9, 13); printed as PEHPAETEY(*)DSLY(*)PEDDL) [γ′ 410-427]
Blood clotting time, activated partial thromboplastin assay [1]: 55.1 ± 0.0 s
Platelet aggregation Slope, ADP ([2]; 0.125 mM peptide): 43
Platelet aggregation Extent, ADP ([2]; 0.125 mM peptide): 87%
Platelet aggregation Slope, ADP ([2]; 0.25 mM peptide): 40
Platelet aggregation Extent, ADP ([2]; 0.25 mM peptide): 86%
Platelet aggregation Slope, ADP ([2]; 0.5 mM peptide): 39
Platelet aggregation Extent, ADP ([2]; 0.5 mM peptide): 82%
Platelet aggregation Slope, ADP ([2]; 1.0 mM peptide): 32
Platelet aggregation Extent, ADP ([2]; 1.0 mM peptide): 58%
Platelet aggregation Slope, Epinephrine ([2]; 0.125 mM peptide): 22
Platelet aggregation Extent, Epinephrine ([2]; 0.125 mM peptide): 84%
Platelet aggregation Slope, Epinephrine ([2]; 0.25 mM peptide): 20
Platelet aggregation Extent, Epinephrine ([2]; 0.25 mM peptide): 82%
Platelet aggregation Slope, Epinephrine ([2]; 0.5 mM peptide): 16
Platelet aggregation Extent, Epinephrine ([2]; 0.5 mM peptide): 78%
Platelet aggregation Slope, Epinephrine ([2]; 1.0 mM peptide): 9
Platelet aggregation Extent, Epinephrine ([2]; 1.0 mM peptide): 43%
Platelet aggregation Slope, Arachidonic Acid ([2]; 0.125 mM peptide): 33
Platelet aggregation Extent, Arachidonic Acid ([2]; 0.125 mM peptide): 81%
Platelet aggregation Slope, Arachidonic Acid ([2]; 0.25 mM peptide): 35
Platelet aggregation Extent, Arachidonic Acid ([2]; 0.25 mM peptide): 82%
Platelet aggregation Slope, Arachidonic Acid ([2]; 0.5 mM peptide): 31
Platelet aggregation Extent, Arachidonic Acid ([2]; 0.5 mM peptide): 83%
Platelet aggregation Slope, Arachidonic Acid ([2]; 1.0 mM peptide): 34
Platelet aggregation Extent, Arachidonic Acid ([2]; 1.0 mM peptide): 85%
Platelet aggregation Extent, Thrombin ([2]; 0.125 mM peptide): 68%
Platelet aggregation Slope, Thrombin ([2]; 0.125 mM peptide): 70
Platelet aggregation Extent, Thrombin ([2]; 0.25 mM peptide): 64%
Platelet aggregation Slope, Thrombin ([2]; 0.25 mM peptide): 39
Platelet aggregation Extent, Thrombin ([2]; 0.5 mM peptide): 93%
Platelet aggregation Slope, Thrombin ([2]; 0.5 mM peptide): 21
Platelet aggregation Extent, Thrombin ([2]; 1.0 mM peptide): 33%
Platelet aggregation Slope, Thrombin ([2]; 1.0 mM peptide): 10
